Data taken from patent US4959367A, “4-oxo-1,2,3-benzotriazines” (Beecham Group P.L.C., priority 1987, dated 1990).

Test system: von Bezold-Jarisch reflex evoked by 5-HT
Assay: Antagonism of the von Bezold-Jarisch reflex evoked by 5-HT in the anaesthetised rat
Format: in vivo
Settings: male rats, urethane anaesthesia, submaximal 5-HT (usually 6 μg/kg) i.v., heart rate changes; for ED50: Rattus norvegicus, iv, read-out: ED50 (required to reduce the 5HT-evoked response to 50% of the control response)
Protocol: Antagonism of the von Bezold-Jarisch reflex
The compounds were evaluated for antagonism of the von Bezold-Jarisch reflex evoked by 5-HT in the anaesthetised rat according to the following method:
Male rats, 250-350 g, were anaesthetised with urethane (1.25 g/kg intraperitoneally) and blood pressure and heart rate recorded as described by Fozard J.R. et al., J. Cardiovasc. Pharmacol. 2, 229-245 (1980). A submaximal dose of 5-HT (usually 6 μg/kg) was given repeatedly by the intravenous route and changes in heart rate quantified. Compounds were given intravenously and the concentration required to reduce the 5HT-evoked response to 50% of the control response (ED50) was then determined.

Row | Compound | ED50 [mg/kg] | ED50 (required to reduce the 5HT-evoked response to 50% of the control response) (i.v.) [mg/kg]
1 | CN1[C@@H]2CC[C@H]1C[C@@H](n1nnc3cc([N+](=O)[O-])c(Cl)cc3c1=O)C2 [Compound E3, (endo)-3-(8-Methyl-8-azabicyclo[3.2.1]oct-3-yl)-6-chloro-7-nitro-3,4-dihydro-4-oxo-benzotriazine] | 0.013 | 
2 | CN1[C@@H]2CC[C@H]1C[C@@H](n1nnc3cc(N)c(Cl)cc3c1=O)C2 [Compound E4, (endo)-3-(8-Methyl-8-azabicyclo[3.2.1]oct-3-yl)-7-amino-6-chloro-3,4-dihydro-4-oxo-benzotriazine] | 0.00017 | 
3 | CN1[C@@H]2CC[C@H]1C[C@@H](n1nnc3ccc(Cl)cc3c1=O)C2 [Compound E1, (endo)-3-(8-Methyl-8-azabicyclo[3.2.1]oct-3-yl)-6-chloro-3,4-dihydro-4-oxo-1,2,3-benzotriazine] | 0.012 | 
4 | CN1CC2CCC1CC2n1nnc2cc(N)c(Cl)cc2c1=O (stereo not drawn) [Compound E8, (5β)-3-(2-Methyl-2-azabicyclo[2.2.2]oct-5-yl)-7-amino-6-chloro-3,4-dihydro-4-oxobenzotriazine] |  | 0.006
